Test results: patent publication US8962244B2, “Compounds for modulating RNA binding proteins and uses therefor” (University of Massachusetts, priority 2009, dated 2015)
Read-outs that look alike come from different tables or passages of the source.

Experiments:
MEX-5 = molecular target: T1, MEX-5 (Caenorhabditis elegans, UniProt Q9XUB2); experiment: Fluorescence polarization screening of MEX-5 binding to fluorescein-labeled TCR2 RNA; settings: read-out: MEX-5 score
T1 construct: The fragment of mex-5 containing the TZF domain (amino acids 236-350) was amplified; made in house; host or cells: Escherichia coli JM109
T1 sequence (Q9XUB2 236-350): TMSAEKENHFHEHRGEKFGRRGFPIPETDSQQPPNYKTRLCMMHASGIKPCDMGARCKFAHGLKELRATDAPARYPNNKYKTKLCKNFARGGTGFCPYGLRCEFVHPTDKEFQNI
Source text: The expression and purification of recombinant MEX-5 protein has previously been described in Pagano, J. M., Farley, B. M., McCoig, L. M. and Ryder, S. P. (2007) “Molecular basis of RNA recognition by the embryonic polarity determinant MEX-5;” J Biol Chem; 282, 8883-8894. The fragment of mex-5 containing the TZF domain (amino acids 236-350) was amplified from a commercially available ORFeome clone (Open Biosystems) and sub-cloned into the vector pMal-c (NEB), which encodes maltose binding protein as an N-terminal fusion. This construct is termed pMal-MEX-5 (236-350).
MEX-5 is expressed in Escherchia. coli JM109 liquid cultures grown at 37° C. Cultures were induced during mid log phase by the addition of 0.1 mM isopropyl 1-thio-β-D-galactopyranoside (IPTG) and allowed to grow for three hours. An amount of 100 μM zinc acetate (final concentration) was added at the time of induction. The pelleted cells were resuspended in lysis buffer (50 mM Tris pH 8.8, 200 mM NaCl, 2 mM DTT, EDTA free protease inhibitor tablet (Roche), 100 μM Zn(OAc)2) and lysed by sonication. The soluble protein was purified in three steps using standard chromatography methods: (1) amylose affinity (NEB), (2) Hi-TRAP-Q (GE Healthcare), and (3) Hi-TRAP-S (GE Healthcare). The Q buffer was composed of 50 mM Tris, pH 8.8, 20 mM-1500 mM NaCl, 2 mM DTT, and 100 μM Zn(OAc)2. The S buffer was composed of 50 mM MOPS, pH 6.0, 20 mM-1500 mM NaCl, 2 mM DTT, 100 μM Zn(OAc)2. The pure fractions, determined by coomassie-stained SDS-PAGE, were dialyzed into storage buffer (20 mM Tris, pH 8.0, 25 mM NaCl, 100 μM Zn(OAc)2, 2 mM DTT). The protein concentration was determined by measuring absorbance at 280 nm and the calculated extinction coefficient. The protein was stored at 50 μM concentration at 4° C.
All RNA oligonucleotides were chemically synthesized by Dharmacon or Integrated DNA Technologies. Upon arrival, each RNA was deprotected and stored according to the manufacturer's instructions. Prior to use, the RNA was resuspended in 10 mM Tris-HCl, pH 8.0, 0.1 mM EDTA, and the concentration determined by UV spectrophotometry using the calculated extinction coefficient at 260 nm based on the specific sequence. The sequence of the MEX-5 binding RNA (TCR2) is […] (SEQ ID NO:1). The POS-1 binding RNA (BMF018) is […] (SEQ ID NO:2). The MEX-3 binding RNA (SEQ 14) is […] (SEQ ID NO:3).
The RNA used for the small molecule screen was labeled at the 3′-end with fluorescein by Dharmacon during synthesis. In a few cases, follow up experiments were performed with post-synthetically labeled RNA. In this case, fluorescein 5-thiosemicarbazide (FTSC, Invitrogen) was used to 3′-end label each RNA after treatment with sodium periodate (see Reines, S. A. and Cantor, C. R. (1974) “New fluorescent hydrazide reagents for the oxidized 3′-terminus of RNA” Nucleic Acids Res. 1, 767-786). A representative 50 μl reaction consisted of 0.5 nanomoles RNA, 100 mM NaOAc, pH 5.1, and 5 nanomoles NaIO4. After the reaction was complete (90 minutes at room temperature), the sample was ethanol precipitated by adding 1 μl RNase free glycogen (Invitrogen 20 μg/μl), 1/20th volume of 5 M NaCl, and 2 volumes of 100% ice-cold ethanol. The resulting pellet was resuspended in 50 μl of 100 mM NaOAc, pH 5.1 containing 1 mM FTSC and was allowed to react overnight at 4° C. in the dark. The unreacted label was removed by ethanol precipitation with resuspension of the pellet in a small volume of TE, and purification over a Roche G-25 size exclusion spin column. The labeling efficiency is determined by calculating the ratio of fluorescein absorbance at 490 nm to RNA-fluorescein absorbance at 260 nm. Typical efficiencies are 60-80%.
The ability of MEX-5 to associate with RNA was monitored by fluorescence polarization using a victor V3 or victor V2V plate reader (Perkin Elmer) in 384-well FluoTrak microplates (Grenier). […]

POS-1 = molecular target: T2, POS-1 (Caenorhabditis elegans, UniProt G5EF15); experiment: Fluorescence polarization screening of POS-1 binding to fluorescein-labeled BMF018 RNA; settings: read-out: POS-1 score
T2 construct: 6-his tag (N); made in house; host or cells: E. coli BL21 (DE3) Gold
T2 sequence (G5EF15 80-180): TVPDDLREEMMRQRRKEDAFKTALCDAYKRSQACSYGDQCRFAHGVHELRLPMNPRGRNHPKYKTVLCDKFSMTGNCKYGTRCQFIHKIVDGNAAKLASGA

[1] = 192 μM test compound, score = polarization relative to no-drug and no-protein controls, 0.25 = 75% inhibition, lowest score = greatest inhibition

SMILES	remaining activity at 192 µM (MEX-5; [1]) [%]	remaining activity at 192 µM (POS-1; [1]) [%]	remaining activity at 192 µM (MEX-5) [%]	remaining activity at 192 µM (POS-1) [%]
Cc1n[nH]c(SCc2ccc(CSc3nc(C)n[nH]3)cc2)n1 [AA]	7.14	0.702	–	–
O=C(O)c1ccc(C2Nc3ccc([N+](=O)[O-])cc3C3c4ccccc4CC23)cc1 (stereo not drawn) [AB]	7.3	10.9	–	–
O=[N+]([O-])c1ccc(S(=O)(=O)Nc2cc(Cl)ccc2O)cc1 [AD]	8.04	8.27	–	–
Cc1nnc(NC(=O)c2cccc(C(=O)Nc3nnc(C)s3)n2)s1 [AF]	8.13	22.7	–	–
O=C(O)c1cc(NC(=O)c2cccc(N3C(=O)CCC3=O)c2)cc(C(=O)O)c1 [AH]	8.76	14.6	–	–
O=C(Nc1nnc[nH]1)c1ccccc1O [AI]	9.13	2.5	–	–
CCOc1cc(C(NC(C)=O)c2cc([N+](=O)[O-])c3cccnc3c2O)ccc1O (stereo not drawn) [AL]	10.4	12.3	–	–
O=C(O)C1CCC(N2C(=O)c3c(Cl)c(Cl)c(Cl)c(Cl)c3C2=O)CC1 (stereo not drawn) [AO]	10.6	6.81	–	–
O=[N+]([O-])c1ccc(NS(=O)(=O)c2ccccc2)c(NS(=O)(=O)c2ccccc2)c1 [AQ]	12.4	11.6	–	–
CCn1c(-c2cc(Br)ccc2O)n[nH]c1=S [AU]	13.4	24.8	–	–
COc1ccc(N2C(=O)NC(=O)/C(=C/c3cccc(OC(=O)c4cccs4)c3)C2=O)cc1Cl [AV]	–	–	14	10.9
Oc1ccc(-c2csc(Nc3cccc4ccccc34)n2)cc1O [AY]	14.1	18	–	–
Cc1sc(NC(=O)c2cnccn2)c(C(N)=O)c1C [AZ]	14.4	25.4	–	–
COC(=O)c1ccccc1OC(=O)c1ccc2c(c1)C1C=CCC1C(C(=O)O)N2 (stereo not drawn) [A]	-10.3	7.5	–	–
O=C(O)CCn1cc(C=C2C(=O)NC(=S)NC2=O)c(-c2cc3ccccc3oc2=O)n1 [BA]	–	–	15.2	22.2
COc1ccc(C(=O)NC(=S)Nc2ccc(C(=O)O)c(Cl)c2)cc1[N+](=O)[O-] [BF]	16.7	9.05	–	–
O=C1NN(c2cccc(Br)c2)C(=O)/C1=C\c1cccc(OC(=O)c2cccs2)c1 [BI]	17.9	10.6	–	–
O=C(Cn1cnc2ccccc2c1=O)Nc1ccc(S(=O)(=O)Nc2nccs2)cc1 [BJ]	18.2	11.9	–	–
Sc1nnc(CSCc2ccccc2Cl)n1-c1ccccc1 [BL]	18.8	27.6	–	–
O=C(O)c1ccccc1NC(=S)NC(=O)c1sc2ccccc2c1Cl [BP]	19.2	4.54	–	–
COc1cc2ccccc2cc1C(=O)NC(=S)Nc1cccc(C(=O)O)c1 [BS]	20	24.3	–	–
CCc1nnc(NS(=O)(=O)c2ccc(NC(=O)c3cc4cc(OC)ccc4oc3=O)cc2)s1 [BU]	20.8	18.1	–	–
COc1ccccc1C(=O)NC(=S)Nc1ccc(C(=O)O)c(Cl)c1 [BV]	21.1	12.2	–	–

SMILES	remaining activity at 192 µM (MEX-5; [1]) [%]	remaining activity at 192 µM (POS-1; [1]) [%]	remaining activity at 192 µM (MEX-5) [%]	remaining activity at 192 µM (POS-1) [%]
Cc1ccc(S(=O)(=O)NC(=S)NCc2cccc(Oc3ccccc3)c2)cc1 [BY]	21.3	14.4	–	–
CCOC(=O)c1ccccc1OC(=O)c1ccc2c(c1)C1C=CCC1C(C(=O)O)N2 (stereo not drawn) [B]	-3.69	5.51	–	–
O=C1NN(c2ccccc2)C(=O)/C1=C\c1cccc(OC(=O)c2cccs2)c1 [CA]	21.6	23	–	–
Oc1ccc(Br)cc1-c1n[nH]c(=S)n1Cc1ccccc1 [CB]	21.7	23.9	–	–
Cc1ccc(O)c(NS(=O)(=O)c2ccc([N+](=O)[O-])cc2)c1 [CD]	22.6	12.4	–	–
O=S(=O)(Nc1nc(-c2ccccc2)c(-c2ccccc2)o1)c1ccc(Cl)cc1 [CO]	24.1	16	–	–
O=S(=O)(Nc1ccc(Cl)cc1O)c1ccccc1 [D]	-1.58	-3.79	–	–
O=S(=O)(Nc1ccc(O)c(NS(=O)(=O)c2ccccc2)c1)c1ccccc1 [F]	-0.711	-2.79	–	–
O=C(O)c1ccc(Sc2nnc(-c3cccc(Br)c3)o2)c([N+](=O)[O-])c1 [G]	-0.64	24.2	–	–
O=C(Oc1ccc2ccccc2c1)c1ccc2c(c1)C1C=CCC1C(C(=O)O)N2 (stereo not drawn) [H]	-0.336	1.95	–	–
O=c1cc(-c2ccccc2)c2ccc(O)c(O)c2o1 [I]	-0.142	0.543	–	–
CC(=O)Oc1ccc(S(=O)(=O)c2ccc(OC(C)=O)c(OC(C)=O)c2)cc1OC(C)=O [J]	-0.0941	8.51	–	–
O=C(Oc1ccc2c(c1)C1C=CCC1C(C(=O)O)N2)c1ccc(Cl)cc1Cl (stereo not drawn) [K]	0.00138	5.81	–	–
Cc1n[nH]c(SCc2cccc(CSc3nc(C)n[nH]3)c2)n1 [L]	1.21	-0.0864	–	–
CCCCN1C(=O)/C(=c2\sc3nc(-c4ccccc4OC(C)=O)nn3c2=O)c2ccccc21 [M]	1.62	11.7	–	–
CC1(C)Cc2ccccc2-c2[nH]c3nnc(S)n3c(=O)c21 [O]	2.3	4.77	–	–
Cc1[nH]nc(-c2ccc(O)c(O)c2O)c1-c1ccccc1 [P]	3.42	4.3	–	–
CC1(C)CC(Cc2nnc(S)[nH]2)C(=O)O1 (stereo not drawn) [S]	5	10.5	–	–
COc1ccc(NC(=S)c2nc3ccccc3[nH]2)cc1 [T]	5.51	8.99	–	–
O=C(O)C1Nc2cc(Cl)cc(Cl)c2C2C=CCC12 (stereo not drawn) [W]	6.4	5.39	–	–
CC(=O)NC(c1ccco1)c1cc([N+](=O)[O-])c2cccnc2c1O (stereo not drawn) [Y]	6.77	6.04	–	–
Cn1c(S)nnc1-c1ccccc1O [Z]	6.88	12.7	–	–
